# In patent publication US6737383B1, “Herbicidal oxadiazolidines” (priority 1999, dated 2004):
# Assays:
# [1] = system: wild oat; experiment: Test B pre/postemergence wild oat; type: in vivo, Avena fatua
# Summary of the method: (§1)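 Herbicidal effect was estimated by eye on a ten-point control scale after plants spent twelve to sixteen days in a greenhouse following soil or foliar treatment. Foliar sprays targeted plants at one to four leaves; all doses were formulated in a non-phytotoxic solvent with surfactant.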
# [2] = system: surinam grass; experiment: Test B pre/postemergence surinam grass; type: in vivo, Brachiaria decumbens
# Summary of the method: as §1
# [3] = system: velvetleaf; experiment: Test B pre/postemergence velvetleaf; type: in vivo, Abutilon theophrasti
# Summary of the method: as §1
# [4] = system: morningglory; experiment: Test B pre/postemergence morningglory; type: in vivo, Ipomoea hederacea
# Summary of the method: as §1
# [5] = system: corn; experiment: Test B pre/postemergence corn; type: in vivo, Zea mays
# Summary of the method: as §1
# [6] = system: rape; experiment: Test B pre/postemergence rape; type: in vivo, Brassica napus
# Summary of the method: as §1
# [7] = system: bedstraw; experiment: Test B pre/postemergence bedstraw; type: in vivo, Galium aparine
# Summary of the method: as §1
# [8] = system: giant foxtail; experiment: Test B pre/postemergence giant foxtail; type: in vivo, Setaria faberii
# Summary of the method: as §1
# [9] = system: purple nutsedge; experiment: Test B pre/postemergence purple nutsedge; type: in vivo, Cyperus rotundus
# Summary of the method: as §1
# [10] = system: wheat; experiment: Test B pre/postemergence wheat; type: in vivo, Triticum aestivum
# Summary of the method: as §1
# [11] = system: soybean; experiment: Test B pre/postemergence soybean; type: in vivo, Glycine max
# Summary of the method: as §1
# [12] = system: crabgrass; experiment: Test B pre/postemergence crabgrass; type: in vivo, Digitaria sanguinalis
# Summary of the method: as §1
# [13] = system: pigweed; experiment: Test B pre/postemergence pigweed; type: in vivo, Amaranthus retroflexus
# Summary of the method: as §1
# [14] = system: cocklebur; experiment: Test B pre/postemergence cocklebur; type: in vivo, Xanthium strumarium
# Summary of the method: as §1
# [15] = system: blackgrass; experiment: Test B pre/postemergence blackgrass; type: in vivo, Alopecurus myosuroides
# Summary of the method: as §1
# [16] = system: sugar beet; experiment: Test B pre/postemergence sugar beet; type: in vivo, Beta vulgaris
# Summary of the method: as §1
# [17] = Postemergence, Rate 125 g/ha, scale 0 to 10, 0 is no effect, 10 is complete control
# [18] = Postemergence, Rate 500 g/ha, scale 0 to 10, 0 is no effect, 10 is complete control
# [19] = Preemergence, Rate 62 g/ha, scale of 0 to 10 where 0 is no effect and 10 is complete control
# [20] = Preemergence, Rate 125 g/ha, scale 0 to 10, 0 is no effect, 10 is complete control
# [21] = Preemergence, Rate 500 g/ha, scale of 0 to 10 where 0 is no effect and 10 is complete control
# [22] = Rate 62 g/ha, Postemergence, scale 0 to 10, 0 no effect, 10 complete control
# [23] = Preemergence, Rate 250 g/ha, scale 0 to 10, 0 is no effect, 10 is complete control
# [24] = Preemergence, Rate 500 g/ha, scale 0 to 10, 0 is no effect, 10 is complete control
# [25] = Postemergence, Rate 250 g/ha, scale 0 to 10
structure (smiles),measurement,setting,value
CC(C)N(C(=O)n1oc(=O)n(CC2=CCCN(C)C2)c1=O)c1ccccc1 [Compound 497],Wild oats plant response rating,[1]; [17],0
same,"Plant response rating, Wild oats",[1]; [18],0
same,"Plant response rating, Wild oats",[1]; [19],0
same,Wild oats plant response rating,[1]; [20],0
same,Wild oats plant response rating,[1]; [21],0
same,Wild oats plant response rating,[1]; [22],0
same,B. signalgrass plant response rating,[2]; [17],0
same,B. signalgrass plant response rating,"[2]; Postemergence, Rate 250 g/ha, scale 0 to 10, 0 no effect, 10 complete control",0
same,"Plant response rating, B. signalgrass",[2]; [18],0
same,"Plant response rating, B. signalgrass",[2]; [19],0
same,B. signalgrass plant response rating,[2]; [20],0
same,B. signalgrass plant response rating,[2]; [23],0
same,B. signalgrass plant response rating,[2]; [24],0
same,B. signalgrass plant response rating,[2]; [22],0
same,Velvetleaf plant response rating,[3]; [17],0
same,"Plant response rating, Velvetleaf",[3]; [18],0
same,"Plant response rating, Velvetleaf",[3]; [19],0
same,Velvetleaf plant response rating,[3]; [20],0
same,Velvetleaf plant response rating,[3]; [21],0
same,Velvetleaf plant response rating,[3]; [22],0
same,Morningglory plant response rating,[4]; [17],0
same,"Plant response rating, Morningglory",[4]; [18],0
same,"Plant response rating, Morningglory",[4]; [19],0
same,Morningglory plant response rating,[4]; [20],0
same,Morningglory plant response rating,[4]; [21],0
same,Morningglory plant response rating,[4]; [22],0
same,Corn plant response rating,[5]; [17],0
same,Corn plant response rating,[5]; [25],0
same,"Plant response rating, Corn",[5]; [18],0
same,"Plant response rating, Corn",[5]; [19],0
same,Corn plant response rating,[5]; [20],0
same,Corn plant response rating,[5]; [21],0
same,Corn plant response rating,[5]; [22],0
same,Rape plant response rating,[6]; [17],0
same,"Plant response rating, Rape",[6]; [18],0
same,"Plant response rating, Rape",[6]; [19],0
same,Rape plant response rating,[6]; [20],0
same,Rape plant response rating,[6]; [21],0
same,Rape plant response rating,[6]; [22],0
same,Bedstraw plant response rating,[7]; [17],0
same,"Plant response rating, Bedstraw",[7]; [19],0
same,Bedstraw plant response rating,[7]; [23],0
same,Bedstraw plant response rating,[7]; [24],0
same,Bedstraw plant response rating,[7]; [22],0
same,Giant foxtail plant response rating,[8]; [17],0
same,"Plant response rating, Giant foxtail",[8]; [18],0
same,"Plant response rating, Giant foxtail",[8]; [19],0
same,Giant foxtail plant response rating,[8]; [20],0
same,Giant foxtail plant response rating,[8]; [21],0
same,Giant foxtail plant response rating,[8]; [22],0
same,Nutsedge plant response rating,[9]; [17],0
same,"Plant response rating, Nutsedge",[9]; [18],0
same,"Plant response rating, Nutsedge",[9]; [19],0
same,Nutsedge plant response rating,[9]; [20],0
same,Nutsedge plant response rating,[9]; [21],0
same,Nutsedge plant response rating,[9]; [22],0
same,Wheat plant response rating,[10]; [17],0
same,"Plant response rating, Wheat",[10]; [18],0
same,"Plant response rating, Wheat",[10]; [19],0
same,Wheat plant response rating,[10]; [20],0
same,Wheat plant response rating,[10]; [21],0
same,Wheat plant response rating,[10]; [22],0
same,Soybean plant response rating,[11]; [17],1
same,"Plant response rating, Soybean",[11]; [18],2
same,"Plant response rating, Soybean",[11]; [19],0
same,Soybean plant response rating,[11]; [20],0
same,Soybean plant response rating,[11]; [21],0
same,Soybean plant response rating,[11]; [22],0
same,Crabgrass plant response rating,[12]; [17],0
same,Crabgrass plant response rating,[12]; [25],0
same,"Plant response rating, Crabgrass",[12]; [18],0
same,"Plant response rating, Crabgrass",[12]; [19],0
same,Crabgrass plant response rating,[12]; [20],0
same,Crabgrass plant response rating,[12]; [21],0
same,Crabgrass plant response rating,[12]; [22],0
same,Redroot pigweed plant response rating,[13]; [17],0
same,"Plant response rating, Redroot pigweed",[13]; [18],0
same,"Plant response rating, Redroot pigweed",[13]; [19],0
same,Redroot pigweed plant response rating,[13]; [20],0
same,Redroot pigweed plant response rating,[13]; [21],0
same,Redroot pigweed plant response rating,[13]; [22],0
same,Cocklebur plant response rating,[14]; [17],0
same,Cocklebur plant response rating,[14]; [25],0
same,"Plant response rating, Cocklebur",[14]; [18],0
same,"Plant response rating, Cocklebur",[14]; [19],0
same,Cocklebur plant response rating,[14]; [20],0
same,Cocklebur plant response rating,[14]; [23],0
same,Cocklebur plant response rating,[14]; [21],0
same,Cocklebur plant response rating,[14]; [22],0
same,Blackgrass plant response rating,[15]; [17],0
same,Blackgrass plant response rating,[15]; [25],0
same,"Plant response rating, Blackgrass",[15]; [18],0
same,"Plant response rating, Blackgrass",[15]; [19],0
same,Blackgrass plant response rating,[15]; [20],0
same,Blackgrass plant response rating,[15]; [23],0
same,Blackgrass plant response rating,[15]; [21],0
same,Blackgrass plant response rating,[15]; [22],0
same,Sugarbeets plant response rating,[16]; [17],0
same,"Plant response rating, Sugarbeets",[16]; [18],0
same,"Plant response rating, Sugarbeets",[16]; [19],0
same,Sugarbeets plant response rating,[16]; [20],0
same,Sugarbeets plant response rating,[16]; [21],0
same,Sugarbeets plant response rating,[16]; [22],0
